The subject of test [1] is U937 xenografts. The test is described as follows: U937 nude mice xenograft model, DNR. The test is classed as in vivo, BALB/c nude mice. Here is the method: Methods: U937 nude mice xenograft model: BALB/c nude mice (5-6 weeks of age) were pretreated with cyclophosphamide (100 mg/kg, injected intraperitoneally once a day for two consecutive days). On day 3, 1×10^7 (100 μl) of U937 cells were subcutaneously (s.c.) injected into a single flank of each of the mice. The treatments began on day 7 after inoculation when the average tumor diameter reached about 5 mm. The mice were divided randomly into four groups (n=6, i.e., six mice in each group) and treated with normal saline (NS), rhPDCD5 (40 μg, locally injected into the tumor), DNR (40 μg, intraperitoneal) or DNR (40 μg) plus rhPDCD5 (40 μg), once a day for 8 consecutive days.
Tumor volume (V) was determined every other day by vernier caliper measurements and calculated based on the equation of V=ab^2/2, where “a” refers to a long tumor diameter and “b” refers to a short diameter, then tumor volume growth curve was drawn. The percentage of reductions in tumor growth was calculated using the formula: [1-(Tf-Ti)/(Cf-Ci)]×100, where Tf and Ti are the final and initial mean tumor volumes, respectively, of the group receiving a specific treatment, and Cf and Ci are the final and initial mean tumor volumes, respectively, of the NS control group. After the treatment, tumors were collected and weighed and tissues were sectioned and processed by histological hematoxylin and eosin (H&E) staining. Results were statistically analyzed using SPSS 13.0. The measurements were expressed as the mean±standard deviation. Data were analyzed by the single-factor ANOVA and Student's t test and are presented as mean±standard deviation (SD). P<0.05 was considered statistically significant.

The subject of test [2] is U937 cells. The test is described as follows: cell apoptosis assay, DNR. Type of test: cell-based. The settings on record: PDCD5 5 μg/mL where combined, 24 hours. As for the experimental part:
Methods: Cell apoptosis assay: U937 cells (ATCC), in the logarithmic phase, were maintained in RPMI 1640 (Life Technologies, USA) supplemented with 10% FBS (Hyclone, USA), and were adjusted to a density of 2×10^5 cells/mL and then were divided into control groups and test groups. U937 cells in the control groups were treated with DNR (Pharmacia Italia SPA) alone, with the final concentrations of 0 μg/mL, 0.05 μg/mL, and 0.1 μg/mL. U937 cells in the test groups were treated with DNR of various concentrations combined with PDCD5 of various concentrations, with the final concentrations of PDCD5 being 0 μg/mL, 2.5 μg/mL, and 5 μg/mL, respectively. After being incubated for 24 hours in a 37° C., 5% CO2 and saturatedly humidified incubator, the cells were stained with Annexin-V/PI (Biosea) and then were analyzed for apoptosis with a FACSCalibur flow cytometer.

In test [3] the test system is U937 cells. Kind of test: colony forming ability (CFA), DNR. Type of test: cell-based. Particulars: DNR 0.5 ng/mL alone; 14 days. As for the experimental part: Analysis for colony forming ability (CFA): U937 cells (ATCC), in the logarithmic phase, were maintained in RPMI 1640 medium supplemented with 20% FBS and 0.4% methyl cellulose (Sigma) by the semi-solid colony culture method and were adjusted to a density of 5×10^3 cells/mL. The cells were divided into control groups and test groups, and each group was assayed in triple wells. U937 cells in the control groups were treated with DNR alone, with the final concentrations of 0 ng/mL and 0.5 ng/mL. U937 cells in the test group were treated with DNR of various concentrations combined with PDCD5 of various concentrations, while the final concentrations of PDCD5 were 0 μg/mL, 0.625 μg/mL, 1.25 μg/mL, and 2.5 μg/mL, respectively. After incubation for 14 days in a 37° C., 5% CO2 and saturatedly humidified incubator, a colony with more than 30 cells was counted by an inverted microscope in order to analyze colony forming ability of each group. The colony forming ability was shown as the ratio of average number of colony in each group versus that of the untreated control group in which the final concentrations of DNR and PDCD5 were 0 μg/mL.

For test [4], the system named is Jurkat cells. Kind of test: FITC/Annexin-V apoptosis by flow cytometry, DNR. The settings on record: DNR 0.05 μg/mL; PDCD5 5 μg/mL where combined; 24 h. The test is classed as cell-based. As for the experimental part: Methods: The density of Jurkat cells were adjusted by RPMI 1640 medium (Life Technologies, USA) supplemented with 10% Fetal Bovine Serum (FBS, Hyclone, USA). […] Subsequently, DNR (Pharmacia Italia S.P.A) was added with its final concentration of 0.05 μg/mL, and RPMI 1640 medium supplemented with 10% FBS was added to ensure the system to be 1 mL. After 24h incubation, the sample was stained with FITC/Annexin-V (Beijing Biosea Biotechnology CO., LTD) and detected for apoptosis by flow cytometry.
A general note: Flow cytometry measures light scatter and fluorescence of single cells or particles in a stream.

Test [5] relates to Raji cells. Kind of test: FITC/Annexin-V apoptosis by flow cytometry, DNR. The test is classed as cell-based. Particulars: DNR 0.05 μg/mL; PDCD5 5 μg/mL where combined; 24 h. Here is the method:
Methods: Raji cells were cultured in RPMI 1640 medium (Life Technologies, USA) supplemented with 10% Fetal Bovine Serum (FBS, Hyclone, USA). The cells were seeded in 24-well plates with 2×10^5 cells per well. rhPDCD5 was added to each well and the final concentrations were 0 μg/mL, 2.5 μg/mL and 5 μg/mL, respectively. Subsequently, DNR was added and the final concentrations were 0 μg/mL and 0.05 μg/mL, and RPMI 1640 medium supplemented with 10% FBS was added to ensure the system was brought to 1 mL. After 24 h incubation, the cells were stained with FITC/Annexin-V (Beijing Biosea Biotechnology Co., Ltd.) and the apoptosis was detected by flow cytometry.

Test [6] deals with U937 cells. Kind of test: PDCD5-FITC internalization, flow cytometry. Type of test: cell-based. Particulars: incubated at 4° C.
The test system of test [7] is HEK293 cells. Kind of test: PDCD5-FITC internalization, flow cytometry. Type of test: cell-based. Particulars: incubated at 4° C. As for the experimental part:
Methods: HEK293 and U937 cells (ATCC) were maintained in RPMI 1640 (Life Technologies, USA), supplemented with 10% heat-inactivated fetal bovine serum (Hyclone, USA), penicillin (100 units/mL), streptomycin (100 μg/mL), and L-glutamine (2 mM). The HEK293 cells were adherent cells with expression of caveolin-1, while the U937 cells were suspension cells without expression of caveolin-1.
The purified rhPDCD5 protein from Example 2 was suspended into 0.025 M sodium carbonate-sodium bicarbonate buffer (pH 9.0). The rhPDCD5 protein was labeled (covalent) by fluorescein isothiocyanate (FITC, Sigma-Aldrich) as described by Masseyeff R. F. et al. (Methods Immunology Analysis 3, 237-238, 1993), and then purified by Sephadex G25 to remove free FITC to obtain PDCD5-FITC protein.
Results: Performance of Flow Cytometry: Quantification of internalized FITC-labeled PDCD5 recombinant protein: HEK293cells were plated in 24-well plates to about 70% confluence, […] FIG. 3. After incubation, the cells were then washed twice, trypsinized, centrifuged, again washed twice with PBS, and finally analyzed by flow cytometry using a FACSCalibur flow cytometer (BD Biosciences).

The test system of test [8] is HEK293 cells. Kind of test: intracellular localization of FITC-labeled PDCD5, fluorescence microscopy. The test is classed as cell-based. The settings on record: 20 μg/mL, 5 hours. Here is the method:
Analysis of intracellular localization of the FITC-labeled recombinant PDCD5 protein by fluorescence microscopy: HEK293 cells were grown in specialized glass-bottom microwell dishes (MatTek Corp., USA) to about 50% confluence and washed, and then fresh 10% fetal bovine serum medium and PDCD5-FITC was added to a final concentration of 20 μg/mL. At each time point shown in the drawing, the cells were rinsed twice with PBS buffer and fixed with 2% paraformaldehyde in PBS for 15 min at room temperature. Cells were imaged using a TCS-SP laser-scanning confocal microscope with a 40× or 63×oil immersion lenses (Leica Microsystems, Mannheim, Germany). Nuclei were visualized by Hoechst 33342 (red regions, a pseudocolor).

Entries after “also recorded” stand apart in the source; their conditions may differ. Marks after values point to notes of the source that are not given here.

On to `COc1cccc2c1C(=O)c1c(O)c3c(c(O)c1C2=O)C[C@@](O)(C(C)=O)C[C@@H]3O[C@H]1C[C@H](N)[C@H](O)[C@H](C)O1` [DNR, Daunorubicin], for which, in test [1] (after the treatment, DNR 40 μg, PDCD5 40 μg where combined), the average tumor weight worked out at 0.45 ± 0.15 g. Further, the “inhibition of tumor growth (percentage of inhibition on tumor sizes vs control group)” value in test [1] (day 15, DNR 40 μg, rhPDCD5 40 μg where combined) was determined as 31.97%. The “Average size of tumors (mean ± SD)” value in test [1] (fifteenth day, rhPDCD5 40 μg into the tumor, DNR 40 μg intraperitoneal, once a day for 8 days) was 410.27 ± 154.93* mm^3. The rate of apoptosis in test [2] (high-dose DNR 0.1 μg/mL) was determined as 23.01%; in test [2] (low-dose DNR 0.05 μg/mL), 21.23%; in test [4], 27.01%; in test [5], 17.46%. Further, in test [3], the “CFA (ratio to untreated control)” value was 79%.

B1: PDCD5-FITC: rhPDCD5 protein covalently labeled by fluorescein isothiocyanate (conjugate, UniProt O14737 2-125, looked up)
Programmed cell death protein …: ADEELEALRRQRLAELQAKHGDPGDAAQQEAKHREAEMRNSILAQVLDQSARARLSNLALVKPEKTKAVENYLIQMARYGQLSEKVSEQGLIEILKKVSQQTEKTTTVKFNRRKVMDSDEDDDY
modifications: FITC label
notes: rhPDCD5 protein covalently labeled by fluorescein isothiocyanate
With B1, the “internalization (uptake) at 4° C.” value in test [6] and in test [7] was “blocked; also recorded: inhibited” each time. In addition, the “intracellular localization of fluorescence” value in test [8] is “localized to discrete compartments in the cytoplasm”.

These data come from patent publication US20110009342A1, “USES OF PDCD5 POLYPEPTIDE FOR TUMOR CHEMOTHERAPY AND ORGAN PROTECTION” (priority 2008, published 2011).
